The results in this text go back to patent publication US7217776B1, “pH-sensitive methacrylic copolymer gels and the production thereof” (Iowa State University Research Foundation, priority 2003, dated 2007).

In the series the test system is NIH/3T3 mouse fibroblasts. As to the kind of experiment: Cytotoxicity elution test. Type of series: cell-based. To be noted: 24 hours incubation; 3 mg/L, 0.3 mg/L and 0.03 mg/L. As for the experimental part:
Elution tests were performed on one sample of the pentablock material to assess the cytotoxic properties of the pentablock copolymers. Approximately 30 mg of the polymers to be tested were dissolved in 100 ml of low-glucose Dulbecco's modified eagle medium (DMEM, Sigma) with 10% fetal bovine serum (FBS, Sigma), 10 μg/ml insulin (Sigma), 10 units/ml penicillin/streptomycin (Sigma), and 100 μg/ml L-ascorbic acid (Sigma). This solution was diluted to achieve the desired polymer concentration for all tests.
NIH/3T3 mouse fibroblasts were grown in polystyrene flasks until reaching confluence at 150 cells/mm. The growth media was removed from the flasks and replaced with one of the following: DMEM (negative control), DMEM with phenol (positive control), DMEM with the pentablock material. The concentrations of the pentablock material and phenol were 3 mg/L, 0.3 mg/L and 0.03 mg/L.
After 24 hours of incubation in a humidified incubator with 5% CO2 at 37° C. the samples were removed and the media was replaced with Kamovsky's fixative (2.5% glutaraldehyde, 2.0% paraformaldehyde, 0.1M sodium cacodylate) for 12 hours. The samples were then stained with a 20% crystal violet dye (CVD) solution in ethanol for 6 hours followed by dehydration with ethanol. […]

With `Oc1ccccc1` [phenol], the “cytotoxic response (cell density, morphology, adherence relative to controls)” value is recorded as “result expected for a cytotoxic material”.
